Read-outs that look alike come from different tables or passages of the source.
How the values were obtained:
[1] = tested on: advanced solid tumor patients with varying degrees of hepatic impairment; conditions: for maximum tolerated dose (MTD): 1-hour IV infusion every 3 weeks; for death related to study drug: one patient
Protocol: • The primary endpoint was the occurrence of DLTs during Cycle 1. • The secondary endpoints were: • Treatment-emergent adverse events (TEAEs); • Laboratory abnormalities; and, • Pharmacokinetic parameters (Cmax, Ceoi, tmax, tlast, AUClast, AUCO-24, AUCO-72, t1/2z, AUC, CL and Vss). • The effect of the degree of hepatic impairment on cabazitaxel PK parameters was evaluated according to a linear mixed effects model (Log [parameter]=Cohort+Error) with a fixed term for Cohort, fit by estimated generalized least squares (GLS) using SAS PROC MIXED. Estimate and 90% confidence interval (CI) for the geometric mean ratio of each cohort versus Cohort 1 and of Cohorts 3 and 4 versus Cohort 2 were provided for CL, CL/BSA, and exposure parameters (Cmax, AUC, AUClast, AUCO-24 and AUCO-72) normalized to actual cabazitaxel dose in mg/m^2.
• The study was designed as an open-label, dose-escalation, multi-center study of cabazitaxel administered as a 1-hour intravenous (IV) infusion every 3 weeks in cancer patients with varying degrees of hepatic impairment. Patients were enrolled in 4 cohorts based on hepatic function at baseline graded by total bilirubin and aspartate aminotransferase (AST): • Cohort 1: normal hepatic function (total bilirubin supper limit of normal [ULN]; aspartate aminotransferase [AST]≦ULN), • Cohort 2: mild hepatic impairment (total bilirubin >1 to ≦1.5×ULN or AST>1.5×ULN), • Cohort 3: moderate hepatic impairment (total bilirubin >1.5× to ≦3.0×ULN; AST=any), • Cohort 4: severe hepatic impairment (total bilirubin >3.0×-10×ULN; AST=any). • All liver function tests must be completed within 48 hours prior to start of treatment, and reviewed by the investigator or their designee before treatment administration.
Cabazitaxel is administered on Day 1 of each 3-week cycle. Patients received cabazitaxel administered by IV infusion over 1 hour at the dose specified for each cohort. The actual amount of cabazitaxel administered was adjusted at each cycle based on body surface area (BSA) to a maximum BSA of 2.1 m^2 (i.e., patients with a BSA over 2.1 m2 will receive the same amount of cabazitaxel as those with a BSA of 2.1 m).
For Cohorts 2, 3 and 4, dose-escalation was based on dose-limiting toxicities (DLTs) during Cycle 1; real time PK information was used along with safety information. The maximum administered dose (MAD) was to be reached at the dose level when at least 2 patients develop a DLT during Cycle 1. The MTD was defined as the highest dose at which no more than 0 of the first 3 patients, or 1 of 6 patients, experience a DLT during Cycle 1, to a maximum dose of 25 mg/m2. The MTD was one dose level below the MAD.
To be considered a DLT, the clinical adverse event (AE) or laboratory abnormality should be drug-related as assessed by the investigator.
Liver DLTs in patients with hepatic dysfunction (Cohorts 2, 3 and 4) were defined as an increase in total and direct bilirubin and/or transaminase levels to 3 times the baseline value.

[2] = Pharmacokinetics of cabazitaxel in POP6792 (plasma, LC-MS/MS, Cycle 1); format: in vivo, human
Protocol: Total cabazitaxel concentrations in plasma were determined using a validated liquid chromatography with tandem mass spectrometry method (LC-MS/MS) with a lower limit of quantification (LLOQ) of 1 ng/mL.

[3] = POH0124; CV=38.8%, n=170; cited from earlier work
[4] = Cohort 2, mild hepatic impairment
[5] = Cohort 3 at the MTD, 4/7 patients

CO[C@H]1C(=O)[C@]2(C)[C@@H](OC)C[C@H]3OC[C@@]3(OC(C)=O)[C@H]2[C@H](OC(=O)c2ccccc2)[C@]2(O)C[C@H](OC(=O)[C@H](O)[C@@H](NC(=O)OC(C)(C)C)c3ccccc3)C(C)=C1C2(C)C [cabazitaxel, 4α-acetoxy-2α-benzoyloxy-5β,20-epoxy-1-hydroxy-7, 101-dimethoxy-9-oxo-11-taxen-13α-yl (2R,3S)-3-tert-butoxycarbonyl-amino-2-hydroxy-3-phenylpropionate]
maximum administered dose (MAD) [1, 4]: 25 mg/m2
maximum tolerated dose (MTD) [1, 4]: 20 mg/m^2
death related to study drug ([1]; Cohort 2/20 mg/m^2): died due to Gr 4 Candida sepsis related to study drug
maximum tolerated dose (MTD) ([1]; Cohort 3, moderate hepatic impairment): 15 mg/m^2
study drug-related febrile neutropenia, patients ([1]; Cohort 3 at the MTD, 1/7 patients): 14.3%
study drug-related TEAE diarrhea, patients ([1]; Cohort 3 at the MTD, 3/7 patients): 42.9%
Gr≧3 on-treatment neutrophil count decreased, patients [1, 5]: 57.1%
Gr≧3 on-treatment white blood cell count decreased, patients [1, 5]: 57.1%
death related to study drug ([1]; Cohort 4/20 mg/m^2): died due to a combination of shock, acute renal failure, tumor lysis syndrome (all related to study drug)
death due to disease progression, patients ([1]; all cohorts, 21/43 patients): 48.8%
patients who died by the cut-off date ([1]; all cohorts, 23 of 43 patients): 53.5%
study drug-related TEAE diarrhea, patients ([1]; human, in vivo): 41.7%
study drug-related TEAE fatigue, patients ([1]; human, in vivo): 83.3%
study drug-related serious TEAE febrile neutropenia, patients ([1]; human, in vivo): 25.0%
study drug-related serious TEAE neutropenia (Gr≧3), patients ([1]; human, in vivo): 33.3%
maximum administered dose (MAD) ([1]; human, in vivo, 3 weeks): 20 mg/m2
febrile neutropenia ([1]; in vivo): No patient experienced febrile neutropenia
safety profile at the MTD ([1]; patients with mild or moderate hepatic impairment): generally similar to that observed at 25 mg/m^2 in patients with normal hepatic function
CL/BSA estimate ([2]; Cohort 1, normal hepatic function, 90% CI: 8.6-20.8): 13.4 L/h/m2
CL/BSA estimate ([2]; Cohort 2, mild hepatic impairment, 90% CI: 17.6-31.4): 23.5 L/h/m2
CL/BSA geometric mean ratio ([2]; Cohort 2 versus Cohort 1, 75% increase, 90% CI: 1.04-2.96): 1.75
mean CL/BSA ([2]; Cohort 3/10 mg/m^2 (aberrant PK behavior, excluded from statistical analysis)): 517 L/h/m2
CL/BSA geometric mean ratio, sensitivity analysis ([2]; Cohort 3 versus Cohort 2, after exclusion of patients with erratic PK profile, 6% decrease, 90% CI: 0.64-1.38): 0.94
AUClast/dose geometric mean ratio ([2]; Cohort 3 versus Cohort 2, 14% decrease, 90% CI: 0.50-1.46): 0.86
CL/BSA geometric mean ratio ([2]; Cohort 3 versus Cohort 2, 19% increase, 90% CI: 0.74-1.91): 1.19
CL/BSA geometric mean ratio, sensitivity analysis ([2]; Cohort 4 versus Cohort 2, after exclusion of patients with erratic PK profile, 39% decrease, 90% CI: 0.36-1.05): 0.61
AUClast/dose geometric mean ratio ([2]; Cohort 4 versus Cohort 2, 17% increase, 90% CI: 0.63-2.14): 1.17
CL/BSA geometric mean ratio ([2]; Cohort 4 versus Cohort 2, 23% decrease, 90% CI: 0.39-1.53): 0.77
mean CL/BSA, Cohort 3/10 mg/m^2 versus other Cohort 3 patients ([2]; higher): approximately 20 fold
effect of hepatic impairment on cabazitaxel clearance ([2]; mild or moderate hepatic impairment): no evidence that mild or moderate hepatic impairment results in a substantial decline in cabazitaxel clearance
CL/BSA estimate ([2]; moderate hepatic impairment): 27.9 L/h/m2
mean CL/BSA ([2]; other Cohort 3 patients, 15 and 20 mg/m2): 30.5 L/h/m2
CL/BSA estimate ([2]; severe hepatic impairment): 18.1 L/h/m2
typical cabazitaxel clearance (CL/BSA) by population PK analysis [3]: 26.4 L/h/m2
